Where no end group is shown, it is not given here.

The nature of data set [1]: Plasma and CSF concentrations after injection into vena cava (RIA GLP-1 assay). Particulars: rat, 10 min after i.v. injection. Type of data set: in vivo. The protocol: Male Sprague Dawley rats were purchased from Charles Rivers. Animals were anesthetized by hypnorm/dormicum, and restrained in a stereotactic instrument. […] Blood samples were collected prior to the injection of test compounds and straight after CSF aspiration.
The assay buffer was 100 mM Tris buffer with pH 8.5 containing 1% (wt/vol) human serum albumin, 0.01 mM valine-pyrrolidide and 500 KIE aprotinin (final concentrations). […] Plasma and CSF concentrations were measured after dilution in assay buffer. Free and bound moieties were separated with plasma-coated charcoal.

Data set [2] relates to C57BL/6J mice. The data set can be described thus: Acute food intake in lean mice, s.c. (Example 10). In kind it is in vivo, mouse. The protocol: Female C57BL/6J mice were purchased from Charles Rivers. One week before study initiation the mice were single housed with free access to food and water. […] Thirty minutes prior peptide injection, all mice were administered subcutaneously with DDP-4 inhibitor Valine-pyrrolidide (1.5 mg/mouse). Food intake was measured after 1, 2, 4 and 14 hours (FIG. 14A-D).
Results shown are combined data from five studies with an identical study design as described above. Between each study mice had at least one week washout period.

The test system of data set [3] is Diet induced obese C57BL/6NTac male mice. Description: Acute food intake in diet induced obese mice, s.c. (Example 11). In kind it is in vivo, mouse. The settings on record: 15 nmol/kg s.c., conjugate also vs GLP-1(7-36). The protocol: Diet induced obese C57BL/6NTac male mice were purchased from Taconic and continued on a high fat high sucrose diet with free access to water. One week after arrival, animals were double or single housed. […] Thirty minutes prior peptide injection, all mice were administered subcutaneously with DDP-4 inhibitor Valine-pyrrolidide (3 mg/mouse). Food intake was measured after 1, 2, 4 and 14 hours (FIG. 15A-D).

The subject of data set [4] is C57BL/6J mice. Description: Acute food intake in lean mice, SH(2-11)-Exendin-4 (Example 12). The settings on record: 15 nmol/kg s.c., conjugate also vs Exendin-4(1-39). In kind it is in vivo, mouse. The protocol: Female C57BL/6J mice were purchased from Charles Rivers. One week before study initiation the mice were single housed with free access to food and water. […] Food intake was measured after 1, 2, 4 and 14 hours (FIG. 16A-D).

The target in data set [5] is T1, GPR125 (ADGRA3) (Homo sapiens, UniProt Q8IWK6).
T1 sequence (Q8IWK6 34-1321): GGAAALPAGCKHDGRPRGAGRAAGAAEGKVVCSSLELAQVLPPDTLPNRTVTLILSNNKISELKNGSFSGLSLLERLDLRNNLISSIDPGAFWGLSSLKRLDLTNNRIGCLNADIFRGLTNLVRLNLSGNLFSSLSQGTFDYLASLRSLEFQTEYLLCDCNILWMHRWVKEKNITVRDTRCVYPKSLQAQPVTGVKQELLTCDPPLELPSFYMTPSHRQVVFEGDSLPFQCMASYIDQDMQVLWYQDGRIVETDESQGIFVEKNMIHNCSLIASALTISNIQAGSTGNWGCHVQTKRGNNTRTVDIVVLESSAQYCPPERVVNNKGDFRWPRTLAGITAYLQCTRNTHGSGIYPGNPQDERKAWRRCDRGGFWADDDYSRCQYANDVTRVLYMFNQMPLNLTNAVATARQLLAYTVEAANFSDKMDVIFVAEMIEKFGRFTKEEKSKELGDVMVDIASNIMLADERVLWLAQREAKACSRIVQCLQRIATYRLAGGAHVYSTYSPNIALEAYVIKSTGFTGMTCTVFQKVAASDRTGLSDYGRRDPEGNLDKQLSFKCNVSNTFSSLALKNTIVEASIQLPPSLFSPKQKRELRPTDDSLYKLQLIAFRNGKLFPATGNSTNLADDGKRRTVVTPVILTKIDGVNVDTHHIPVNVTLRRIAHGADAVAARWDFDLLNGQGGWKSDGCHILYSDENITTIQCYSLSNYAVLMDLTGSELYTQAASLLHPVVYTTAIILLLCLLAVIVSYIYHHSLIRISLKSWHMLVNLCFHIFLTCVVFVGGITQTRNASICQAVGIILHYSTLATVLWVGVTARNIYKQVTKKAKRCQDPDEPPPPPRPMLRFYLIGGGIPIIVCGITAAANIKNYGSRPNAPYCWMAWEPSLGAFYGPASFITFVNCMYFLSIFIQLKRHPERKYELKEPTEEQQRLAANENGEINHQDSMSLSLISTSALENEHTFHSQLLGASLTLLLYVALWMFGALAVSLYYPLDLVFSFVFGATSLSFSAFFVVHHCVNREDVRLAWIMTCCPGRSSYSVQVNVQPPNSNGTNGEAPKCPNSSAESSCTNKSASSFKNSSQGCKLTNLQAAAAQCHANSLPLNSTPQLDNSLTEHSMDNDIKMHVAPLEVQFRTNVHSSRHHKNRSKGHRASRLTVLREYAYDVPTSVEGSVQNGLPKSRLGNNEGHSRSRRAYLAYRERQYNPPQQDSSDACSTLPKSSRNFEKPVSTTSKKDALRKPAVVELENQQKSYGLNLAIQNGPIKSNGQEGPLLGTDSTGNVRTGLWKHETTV
The data set can be described thus: xCELLigence impedance, MDA231 cells endogenously expressing GPR125. Particulars: first 30 minutes after stimulation. Type of data set: cell-based. The protocol: (§1) Once the cells are added to the E-plate they are allowed to adhere and proliferate for 18 hours during which the impedance is measured every 15 minutes generating the initial adhesion and growth curve. Upon stimulation the measurements are change to rapid detection every 15 seconds followed by every minute and every 5 minutes during the first hour after stimulation.

The target of data set [6] is T1, GPR125 (ADGRA3). The data set can be described thus: xCELLigence impedance, HEK293 Flp-In T-rex cells with full length GPR125. In kind it is cell-based. Set-up: HEK293 Flp-In T-rex cells stably transfected with full length (FL) GPR125; expressed in transfected cells; host or cells: HEK293 Flp-In T-rex cells. Particulars: HEK293 Flp-In T-rex cells stably transfected with full length (FL) GPR125, first 30 minutes after stimulation. As to the method: as §1

Data set [7] has as its target T2, GPR125 (ADGRA3) in mouse choroid plexus (mouse, UniProt Q7TT36 28-1310).
T2 construct: whole, on cells
T2 sequence: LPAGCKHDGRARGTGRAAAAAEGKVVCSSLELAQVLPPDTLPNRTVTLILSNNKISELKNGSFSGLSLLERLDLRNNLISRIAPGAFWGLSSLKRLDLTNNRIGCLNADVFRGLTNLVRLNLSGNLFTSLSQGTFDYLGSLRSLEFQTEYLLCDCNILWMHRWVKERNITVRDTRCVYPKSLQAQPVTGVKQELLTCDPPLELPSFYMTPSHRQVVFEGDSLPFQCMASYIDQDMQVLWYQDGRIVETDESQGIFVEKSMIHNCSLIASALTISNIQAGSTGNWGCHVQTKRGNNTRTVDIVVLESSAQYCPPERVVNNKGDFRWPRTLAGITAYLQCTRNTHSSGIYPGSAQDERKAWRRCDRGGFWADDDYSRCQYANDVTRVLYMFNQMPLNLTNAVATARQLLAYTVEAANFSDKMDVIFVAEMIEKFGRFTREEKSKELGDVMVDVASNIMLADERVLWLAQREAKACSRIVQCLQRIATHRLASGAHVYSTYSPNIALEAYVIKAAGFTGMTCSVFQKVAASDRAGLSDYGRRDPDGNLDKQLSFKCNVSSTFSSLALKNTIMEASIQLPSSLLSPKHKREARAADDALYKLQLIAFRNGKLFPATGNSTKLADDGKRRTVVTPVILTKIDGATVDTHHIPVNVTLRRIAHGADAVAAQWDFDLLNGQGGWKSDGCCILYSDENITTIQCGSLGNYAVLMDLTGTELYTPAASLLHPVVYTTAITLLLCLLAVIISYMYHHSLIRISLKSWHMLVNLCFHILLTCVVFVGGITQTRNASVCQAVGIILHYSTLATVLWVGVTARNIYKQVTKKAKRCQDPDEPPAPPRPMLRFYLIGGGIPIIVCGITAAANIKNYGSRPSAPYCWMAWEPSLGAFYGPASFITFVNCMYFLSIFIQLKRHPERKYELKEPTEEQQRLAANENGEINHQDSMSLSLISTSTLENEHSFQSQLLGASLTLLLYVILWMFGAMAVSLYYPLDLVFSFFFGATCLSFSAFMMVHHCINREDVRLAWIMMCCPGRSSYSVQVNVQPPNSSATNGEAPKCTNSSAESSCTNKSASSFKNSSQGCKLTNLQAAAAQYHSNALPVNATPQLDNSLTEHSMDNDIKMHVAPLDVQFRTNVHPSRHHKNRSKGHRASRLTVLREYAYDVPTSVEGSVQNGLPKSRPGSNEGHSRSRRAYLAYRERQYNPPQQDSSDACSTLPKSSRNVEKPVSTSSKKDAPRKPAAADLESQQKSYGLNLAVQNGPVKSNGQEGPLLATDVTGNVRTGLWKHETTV
Description: fluorescence microscopy of mouse brain cryosections, WT against GPR125 KO (KO stained only at 22 µM and 11 µM).

Regarding `CC[C@H](C)[C@H](NC(=O)[C@H](Cc1ccccc1)NC(=O)[C@H](CCC(=O)O)NC(=O)[C@H](CCCCN)NC(=O)[C@H](C)NC(=O)[C@H](C)NC(=O)[C@H](CCC(N)=O)NC(=O)CNC(=O)[C@H](CCC(=O)O)NC(=O)[C@H](CC(C)C)NC(=O)[C@H](Cc1ccc(O)cc1)NC(=O)[C@H](CO)NC(=O)[C@H](CO)NC(=O)[C@@H](NC(=O)[C@H](CC(=O)O)NC(=O)[C@H](CO)NC(=O)[C@@H](NC(=O)[C@H](Cc1ccccc1)NC(=O)[C@@H](NC(=O)CNC(=O)[C@H](CCC(=O)O)NC(=O)[C@H](C)NC(=O)[C@@H](N)Cc1c[nH]cn1)[C@@H](C)O)[C@@H](C)O)C(C)C)C(=O)N[C@@H](C)C(=O)N[C@@H](Cc1c[nH]c2ccccc12)C(=O)N[C@@H](CC(C)C)C(=O)N[C@H](C(=O)N[C@@H](CCCCN)C(=O)NCC(=O)N[C@@H](CCCNC(=N)N)C(N)=O)C(C)C` [GLP-1(7-36), GLP-1 (7-36) amide, reference compound], the “detectable in CSF by RIA GLP-1 assay” value in data set [1] was “detectable”. For the same molecule, the “food intake compared to vehicle” value is reported as “did not show a significant decrease” with C57BL/6J mice [2] (15 nmol/kg s.c., after 1 hour); “did not show a significant decrease” with C57BL/6J mice [2] (15 nmol/kg s.c., after 2 hours); “did not show a significant decrease” with C57BL/6J mice [2] (15 nmol/kg s.c., after 4 hours); “did not show a significant decrease” in the data set on C57BL/6J mice [2] (15 nmol/kg s.c., after 14 hours); “decreased their food intake significantly” in the data set on C57BL/6J mice [2] (30 nmol/kg s.c., after 1 hour); “decreased their food intake significantly” with C57BL/6J mice [2] (30 nmol/kg s.c., after 2 hours). For the same molecule, the “food intake compared to vehicle” value in the data set on C57BL/6J mice [2] (30 nmol/kg s.c., after 4 hours) is “less significant”; in data set [3] (after 1 hour), “decreased food intake”; in data set [3] (after 2 hours) it was “decreased food intake”; in data set [3] (after 4 hours), “not present”.
In the case of Exendin-4 [Exendin-4(1-39)], the “food intake compared to vehicle” value in the data set on C57BL/6J mice [4] (after 1 hour) was “decreased food intake”; in the data set on C57BL/6J mice [4] (after 2 hours), “decreased food intake”; in the data set with C57BL/6J mice [4] (after 4 hours), “less significant”.
For “SH1-9: MPAIQPPLY, MuV SH protein fragment (1-9) (Genotype G Genbank ID QFO38283.1 1-9)”, the “GPR125 signaling, area under the curve (AUC) of impedance” value (from here on “GPR125 signaling, area under the curve”) with GPR125 (ADGRA3) [5] and with GPR125 (ADGRA3) [6] was “affected GPR125 signaling” each time.
For the molecule “SH1-57: whole mumps virus SH protein 1-57 (MPAIQPPLYLTFLLLILLYLIITLYVWIILTITYKTAVRHAALYQRSFFRWSFDHSL; Genotype G Genbank ID QFO38283.1 1-57; (1)..(57) Genotype G Genbank ID QFO38283.1 1-57)”, the “GPR125 signaling, area under the curve” value with GPR125 (ADGRA3) [5] and with GPR125 (ADGRA3) [6] was “affected GPR125 signaling” throughout.
As to “SH2-9: PAIQPPLY, MuV SH protein fragment (2-9) (Genotype G Genbank ID QFO38283.1 2-9)”, the “GPR125 signaling, area under the curve” value with GPR125 (ADGRA3) [5] and with GPR125 (ADGRA3) [6] was “affected GPR125 signaling” in each case.

B1: TAMRA labelled SH-protein (SEQ ID NO: 129) (other)
chain: MPAIQPPLYLTFLLLILLYLIITLYVWIILTVTYKTAVRHAALYQRSFFHWSFDHSL
modifications: also: TAMRA labelled
notes: also called TAMRA-functionalized SH protein
For B1, in data set [7], the binding result is given as “binds”.

The values above are taken from patent US20240216519A1, “SMALL HYDROPHOBIC PROTEIN DRUG CONJUGATES AND USES THEREOF” (priority 2021, published 2024).
